Among the test systems are MDA-MB-231 breast; CCRF-CEM leukemia; HS 578T breast; TK-10 renal; IGROV1 ovarian; SW-620 colon; ACHN renal; CAKI-1 renal; KM12 colon; BT-549 breast.
What all share (test): NCI anticancer screen, dose series, 48 h

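Protocol summary: plate cells (96-well), add compound at 5 concentrations, incubate 48 h, interpolate endpoints linearly. GI50 marks 50% less growth. Definition used: TGI = concentration required for complete inhibition of growth.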 A value given as a limit tells only on which side of the number the result lay.

Turning to `Cc1nn(C)c2cc(N(C)c3ccnc(Nc4cccc(S(N)(=O)=O)c4)n3)ccc12`, the GI50 in the assay with MDA-MB-231 breast was 8.03 µM; in the assay with CCRF-CEM leukemia it was 7.3 µM; with HS 578T breast, 7.26 µM; in the assay with TK-10 renal, 5.93 µM; in the assay on IGROV1 ovarian, 5.98 µM; in the assay with SW-620 colon, 11.3 µM. Moreover, the GI50 is 6.71 µM in the assay with ACHN renal, 7.17 µM in the assay on CAKI-1 renal, 7.38 µM in the assay on KM12 colon and 8.69 µM in the assay on BT-549 breast. The TGI with MDA-MB-231 breast was over 25 µM; in the assay on CCRF-CEM leukemia it was over 25 µM; in the assay on HS 578T breast, over 25 µM; with TK-10 renal, 24.4 µM; in the assay with IGROV1 ovarian, over 18.9 µM; in the assay with SW-620 colon, over 25 µM. The TGI in the assay with ACHN renal is over 25 µM; with CAKI-1 renal it was over 22.6 µM; in the assay on KM12 colon, over 25 µM; in the assay with BT-549 breast, over 23.5 µM.
Consider `N#CSc1ccc(S(N)(=O)=O)cc1`, for which the TGI is over 100 µM in the assay on MDA-MB-231 breast; 88.7 µM with CCRF-CEM leukemia; over 100 µM with HS 578T breast; over 100 µM with TK-10 renal; over 100 µM in the assay on IGROV1 ovarian; 98.9 µM in the assay on SW-620 colon. Further, the TGI in the assay with ACHN renal, in the assay with CAKI-1 renal, in the assay with KM12 colon and in the assay on BT-549 breast was over 100 µM in each case.
With `COc1ccc2nc(-c3cc4c([nH]c5ccccc54)c(-c4ccc(F)c(F)c4)n3)[nH]c2c1`, the GI50 with MDA-MB-231 breast was 10.4 µM; in the assay with CCRF-CEM leukemia, 2.36 µM; with HS 578T breast, 8.68 µM; with TK-10 renal it was 4.29 µM; in the assay on IGROV1 ovarian, 4.62 µM; with SW-620 colon, 4.82 µM. Besides, the GI50 is 3.2 µM in the assay on ACHN renal, 2.41 µM in the assay with CAKI-1 renal, 2.93 µM in the assay on KM12 colon and 6.3 µM in the assay with BT-549 breast. The TGI with MDA-MB-231 breast came to 34 µM; with CCRF-CEM leukemia it was 7.8 µM; in the assay with HS 578T breast, 41.9 µM; with TK-10 renal it was 17.3 µM; with IGROV1 ovarian, 34.7 µM; in the assay on SW-620 colon, 23.7 µM. For the same compound, the TGI in the assay on ACHN renal worked out at 12.6 µM; with CAKI-1 renal, 8.97 µM; with KM12 colon it was 13 µM; in the assay with BT-549 breast, 22.5 µM.
`Nc1nc(-c2cccs2)cs1`: the TGI in the assay with MDA-MB-231 breast, with CCRF-CEM leukemia, in the assay on HS 578T breast, with TK-10 renal, with IGROV1 ovarian and in the assay on SW-620 colon was over 100 µM each time. Also, the TGI in the assay with ACHN renal, in the assay on CAKI-1 renal, in the assay on KM12 colon and with BT-549 breast was over 100 µM each time.
On to `COc1ccc(C2CC(=O)c3c(O)c(OC)c(OC)c(OC)c3O2)cc1O` (stereo not drawn), for which the GI50 was 0.625 µM in the assay on MDA-MB-231 breast; 0.115 µM with CCRF-CEM leukemia; 0.0498 µM in the assay on HS 578T breast; over 31.4 µM in the assay with TK-10 renal; 0.976 µM with IGROV1 ovarian; 0.0418 µM with SW-620 colon. The GI50 with ACHN renal was 0.572 µM; with CAKI-1 renal it was 0.43 µM; in the assay on KM12 colon, 0.0585 µM; in the assay with BT-549 breast, 0.0745 µM. Also, the TGI in the assay on MDA-MB-231 breast, in the assay on CCRF-CEM leukemia, in the assay with HS 578T breast, in the assay with TK-10 renal, with IGROV1 ovarian and in the assay on SW-620 colon was over 100 µM in each case. Also, the TGI with ACHN renal is over 100 µM; with CAKI-1 renal, over 100 µM; with KM12 colon, over 100 µM; in the assay with BT-549 breast it was 31.2 µM.
As to `C=C(CN(C)C)C(=O)c1ccc(Oc2ccccc2)cc1`, the TGI in the assay with MDA-MB-231 breast is 15.5 µM; in the assay with CCRF-CEM leukemia it was 14.6 µM; in the assay with HS 578T breast, 21.7 µM; with TK-10 renal it was 14.5 µM; with IGROV1 ovarian, 30.8 µM; in the assay on SW-620 colon it was 9.27 µM. The TGI in the assay on ACHN renal was 5.08 µM; with CAKI-1 renal it was 6.69 µM; in the assay on KM12 colon, 29.8 µM; in the assay with BT-549 breast, 12.9 µM.
As for `Cc1cc2nc(C(Cl)Cl)nc(-c3ccccc3)n2n1`, the GI50 is 3.44 µM in the assay with MDA-MB-231 breast; 25.8 µM in the assay with CCRF-CEM leukemia; 2.65 µM in the assay with HS 578T breast; 4.73 µM with TK-10 renal; 5.24 µM in the assay with IGROV1 ovarian; 3.22 µM with SW-620 colon. Further, the GI50 in the assay with ACHN renal was 1.87 µM; in the assay with CAKI-1 renal, 2.7 µM; in the assay with KM12 colon, 1.78 µM; with BT-549 breast, 17.4 µM. Besides, the TGI in the assay on MDA-MB-231 breast is 20.9 µM; in the assay on CCRF-CEM leukemia, over 100 µM; in the assay on HS 578T breast it was 14.5 µM; in the assay with TK-10 renal, 51.2 µM; with IGROV1 ovarian it was 35.1 µM; in the assay on SW-620 colon, 28 µM. Moreover, the TGI in the assay with ACHN renal is 5.12 µM; in the assay with CAKI-1 renal, 15.4 µM; in the assay with KM12 colon, 4.86 µM; with BT-549 breast, over 100 µM.
Take `CC#CC(=O)N1CC[C@@H](n2c(=O)n(-c3ccc(Oc4ccccc4)cc3)c3c(N)ncnc32)C1`: the GI50 with MDA-MB-231 breast was 19.5 µM; in the assay with CCRF-CEM leukemia it was 26.2 µM; in the assay on HS 578T breast, 22.5 µM; in the assay on TK-10 renal it was 35 µM; with IGROV1 ovarian, 15.2 µM; in the assay with SW-620 colon, 47.6 µM. Further, the GI50 was 21.4 µM in the assay on ACHN renal, 13.8 µM in the assay with CAKI-1 renal, 32.9 µM in the assay with KM12 colon and 14.5 µM with BT-549 breast. The TGI is 72.6 µM with MDA-MB-231 breast; over 100 µM in the assay with CCRF-CEM leukemia; over 100 µM in the assay on HS 578T breast; over 100 µM in the assay with TK-10 renal; 60.8 µM in the assay with IGROV1 ovarian; over 100 µM in the assay with SW-620 colon. In addition, the TGI was over 100 µM with ACHN renal, over 100 µM with CAKI-1 renal, over 100 µM in the assay with KM12 colon and 55 µM in the assay with BT-549 breast.
Take `Cc1cc(N(CCOS(C)(=O)=O)CCOS(C)(=O)=O)ccc1C=Nc1ccc(-c2csc(-c3ccc(Br)cc3)n2)cc1`: the TGI in the assay with MDA-MB-231 breast is 39.2 µM; with CCRF-CEM leukemia it was over 100 µM; in the assay on HS 578T breast, over 97.3 µM; in the assay on TK-10 renal it was 36.9 µM; in the assay with IGROV1 ovarian, 22.5 µM; with SW-620 colon, over 100 µM. For the same compound, the TGI was 13.8 µM with ACHN renal, 3.96 µM in the assay on CAKI-1 renal, 21.6 µM in the assay with KM12 colon and over 76.4 µM with BT-549 breast.
Turning to `CC1=CC(=O)c2ccc(C)cc2C1=O`, the TGI in the assay on MDA-MB-231 breast is 24.2 µM; with CCRF-CEM leukemia, 12.4 µM; with HS 578T breast, over 100 µM; in the assay with TK-10 renal, 34 µM; in the assay with IGROV1 ovarian it was 30.8 µM; in the assay with SW-620 colon it was 30.4 µM. Also, the TGI with ACHN renal worked out at 21 µM; in the assay on CAKI-1 renal, 14.9 µM; in the assay with KM12 colon it was 19.8 µM; with BT-549 breast it was 25 µM.
On to `Nc1ccc(-c2ccc(-c3nc4cc(Cl)c(Cl)cc4[nH]3)cc2)cc1`, for which the GI50 was 3.34 µM with MDA-MB-231 breast; 0.508 µM in the assay with CCRF-CEM leukemia; 12 µM in the assay with HS 578T breast; 1.63 µM with TK-10 renal; 12.1 µM with IGROV1 ovarian; under 0.0313 µM in the assay on SW-620 colon. The GI50 in the assay with ACHN renal is 0.0833 µM; with CAKI-1 renal it was 0.353 µM; with KM12 colon, 0.826 µM; with BT-549 breast, 27.4 µM. Also, the TGI in the assay with MDA-MB-231 breast was over 49.6 µM; in the assay on CCRF-CEM leukemia, over 52.7 µM; in the assay with HS 578T breast, 82.1 µM; with TK-10 renal, 37.4 µM; in the assay on IGROV1 ovarian it was over 100 µM; with SW-620 colon, over 100 µM. Further, the TGI is over 34.8 µM in the assay on ACHN renal and over 100 µM in the assay on BT-549 breast.
`O=C(O)CCSC(=S)Nc1ccc([N+](=O)[O-])cc1`: the TGI in the assay with MDA-MB-231 breast was over 100 µM; in the assay on CCRF-CEM leukemia, over 68.2 µM; in the assay on HS 578T breast it was over 100 µM; with TK-10 renal, over 100 µM; in the assay with IGROV1 ovarian, over 100 µM; in the assay with SW-620 colon, over 100 µM. Further, the TGI with ACHN renal was over 83 µM; in the assay on CAKI-1 renal, over 100 µM; in the assay with KM12 colon, over 100 µM; in the assay with BT-549 breast it was over 100 µM.
For the compound `CCN1CCN(c2ccc(Nc3ncc4ccc5ncn(C(C)C)c5c4n3)nc2)CC1`, the GI50 was 0.111 µM in the assay on MDA-MB-231 breast; 0.145 µM in the assay on CCRF-CEM leukemia; 0.155 µM in the assay on HS 578T breast; 0.0359 µM in the assay with TK-10 renal; 0.0347 µM in the assay with IGROV1 ovarian; 0.0352 µM in the assay with SW-620 colon. Further, the GI50 was 0.0402 µM with ACHN renal, 0.025 µM in the assay on CAKI-1 renal, 0.123 µM in the assay with KM12 colon and 0.218 µM in the assay with BT-549 breast. Further, the TGI in the assay on MDA-MB-231 breast was found to be 0.727 µM; in the assay with CCRF-CEM leukemia, 3.63 µM; with HS 578T breast it was 0.618 µM; in the assay on TK-10 renal it was 0.873 µM; in the assay with IGROV1 ovarian, 1.6 µM; with SW-620 colon, 0.418 µM. For the same compound, the TGI stood at 10.6 µM in the assay with ACHN renal, 0.52 µM in the assay with CAKI-1 renal, 0.719 µM in the assay with KM12 colon and 0.687 µM in the assay on BT-549 breast.
With `COc1cc2c3c(n(CCCN4CCCC(O)C4)c(=O)c2cc1OC)-c1cc2c(cc1C3=O)OCO2` (stereo not drawn), the GI50 in the assay with MDA-MB-231 breast was 0.791 µM; in the assay on CCRF-CEM leukemia it was 0.00738 µM; in the assay on HS 578T breast, 0.874 µM; in the assay with TK-10 renal, 6.38 µM; in the assay with IGROV1 ovarian it was 0.836 µM; in the assay on SW-620 colon, 0.047 µM. The GI50 in the assay with ACHN renal was under 0.005 µM; in the assay on CAKI-1 renal it was 0.00685 µM; in the assay with KM12 colon, 0.333 µM; in the assay on BT-549 breast, 0.898 µM. Further, the TGI in the assay on MDA-MB-231 breast is 1.62 µM; in the assay with CCRF-CEM leukemia, 0.278 µM; in the assay on HS 578T breast, 2.11 µM; with TK-10 renal, 14.2 µM; in the assay on IGROV1 ovarian, 8.87 µM; in the assay with SW-620 colon it was 7.61 µM. Further, the TGI with ACHN renal is 0.32 µM; with CAKI-1 renal, 1.36 µM; in the assay on KM12 colon, 1.49 µM; with BT-549 breast it was 3.21 µM.

The values are drawn from PubChem BioAssay (NCI).
